{"source": "ChEMBL document CHEMBL4425082", "about": "“Antimalarial Chemotherapy: Natural Product Inspired Development of Preclinical and Clinical Candidates with Diverse Mechanisms of Action” (J Med Chem, 2016)", "key": {"[1]": {"assay": "Inhibition of Plasmodium falciparum cytochrome bc1 expressed in HEK293 cells by spectrophotometric analysis", "type": "cell-based"}, "[2]": {"assay": "Inhibition of Plasmodium falciparum NDH2 expressed in HEK293 cells by spectrophotometric analysis", "type": "cell-based"}, "Plasmodium berghei [3]": {"test_system": "Plasmodium berghei", "assay": "Antimalarial activity against blood stage Plasmodium berghei infected in mouse administered qd through oral gavage for 4 days", "settings": "96 h"}, "Plasmodium falciparum [4]": {"test_system": "Plasmodium falciparum", "assay": "Antimalarial activity against Plasmodium falciparum 3D7", "type": "functional, organism-based"}, "Plasmodium falciparum [5]": {"test_system": "Plasmodium falciparum", "assay": "Antimalarial activity against atovaquone-resistant Plasmodium falciparum TM90C2B", "type": "functional, organism-based"}, "Plasmodium yoelii": {"test_system": "Plasmodium yoelii", "assay": "Antimalarial activity against blood stage Plasmodium yoelii infected in mouse administered qd through oral gavage for 4 days", "type": "functional", "settings": "96 h"}, "Plasmodium falciparum [6]": {"test_system": "Plasmodium falciparum", "assay": "Antimalarial activity against chloroquine-resistant Plasmodium falciparum W2 by [3H]-hypoxanthine incorporation assay", "type": "functional, organism-based"}, "Plasmodium berghei [7]": {"test_system": "Plasmodium berghei", "assay": "Antimalarial activity against Plasmodium berghei infected in po dosed mouse erythrocyte administered qd for 8 days by Giemsa staining based microscopic analysis", "type": "functional", "settings": "192 h"}, "[8]": {"assay": "Therapeutic index, ratio of IC50 for mouse J774 cells to IC50 chloroquine-resistant Plasmodium falciparum W2", "type": "toxicity", "settings": "read-out: Ratio IC50"}, "[9]": {"assay": "Therapeutic index, ratio of IC50 for mouse/rat NG108 cells to IC50 chloroquine-resistant Plasmodium falciparum W2", "type": "toxicity", "settings": "read-out: Ratio IC50"}, "[10]": {"assay": "Oral bioavailability in rat at 3 mg/kg", "type": "ADME, organism-based", "settings": "in vivo"}, "Plasmodium falciparum [11]": {"test_system": "Plasmodium falciparum", "assay": "Antimalarial activity against Plasmodium falciparum FCR 3TC after 48 hrs", "type": "functional, organism-based"}, "[12]": {"assay": "Half life in human", "type": "ADME"}, "Plasmodium falciparum [13]": {"test_system": "Plasmodium falciparum", "assay": "Antimalarial activity against Plasmodium falciparum 3D7 after 48 hrs", "type": "functional, organism-based", "settings": "3D7, 48 h"}, "Plasmodium falciparum [14]": {"test_system": "Plasmodium falciparum", "assay": "Antimalarial activity against Plasmodium falciparum 3D7 after 96 hrs", "type": "functional, organism-based", "settings": "3D7, 96 h"}, "Plasmodium falciparum [15]": {"test_system": "Plasmodium falciparum", "assay": "Antimalarial activity against Plasmodium falciparum W2 after 48 hrs", "type": "functional, organism-based", "settings": "W2, 48 h"}, "Plasmodium vinckei [16]": {"test_system": "Plasmodium vinckei", "assay": "Antimalarial activity against Plasmodium vinckei infected in ip dosed mouse assessed as reduction in parasitemia administered tid by 4-day suppression test", "type": "functional", "settings": "96 h"}, "Plasmodium vinckei [17]": {"test_system": "Plasmodium vinckei", "assay": "Antimalarial activity against Plasmodium vinckei infected in po dosed mouse assessed as reduction in parasitemia administered tid by 4-day suppression test", "type": "functional", "settings": "96 h"}, "[18]": {"assay": "Oral bioavailability in rat", "type": "ADME, organism-based", "settings": "in vivo"}, "Plasmodium falciparum [19]": {"test_system": "Plasmodium falciparum", "assay": "Antimalarial activity against Plasmodium falciparum Dd2 assessed as reduction in parasite viability by [3H]-hypoxanthine incorporation assay", "type": "functional, organism-based"}, "Plasmodium berghei [20]": {"test_system": "Plasmodium berghei", "assay": "Antimalarial activity against GFP-transfected Plasmodium berghei ANKA infected in mouse assessed as reduction in parasitemia at 30 mg/kg, po administered on day 1 post infection measured on day 3 post infection", "type": "functional", "set-up": "scale not given: the % may be the effect or the level left"}}}
{"smiles": "Cc1c(-c2ccc(-c3ccc(OC(F)(F)F)cc3)nc2)[nH]c2ccccc2c1=O", "values": [{"measurement": "IC50", "setting": "[1]", "result": 15, "unit": "nM"}, {"measurement": "IC50", "setting": "[2]", "result": 14, "unit": "nM"}, {"measurement": "ED50", "setting": "Plasmodium berghei [3]", "result": 1.8, "unit": "mg/kg"}, {"measurement": "ED90", "setting": "Plasmodium berghei [3]", "result": 4.7, "unit": "mg/kg"}]}
{"smiles": "COc1cc2[nH]c(C)c(-c3ccc(Oc4ccc(OC(F)(F)F)cc4)cc3)c(=O)c2cc1Cl", "values": [{"measurement": "IC50", "setting": "Plasmodium falciparum [4]", "result": 5, "unit": "nM"}, {"measurement": "IC50", "setting": "Plasmodium falciparum [5]", "result": 3, "unit": "nM"}, {"measurement": "ED50", "setting": "Plasmodium yoelii", "result": 0.1, "unit": "mg/kg"}, {"measurement": "ED90", "setting": "Plasmodium yoelii", "result": 0.15, "unit": "mg/kg"}]}
{"smiles": "O=C(C[C@H]1NCCC[C@@H]1O)Cn1cnc2ccccc2c1=O", "values": [{"measurement": "IC50", "setting": "Plasmodium falciparum [6]", "result": 2.5, "unit": "nM"}, {"measurement": "ED50", "setting": "Plasmodium berghei [7]", "result": 2.3, "unit": "mg/kg"}, {"measurement": "selectivity ratio", "setting": "[8]", "result": 3}, {"measurement": "selectivity ratio", "setting": "[9]", "result": 3}]}
{"smiles": "c1cc([C@H]2CC[C@]3(CC2)OO[C@]2(O3)C3CC4CC(C3)CC2C4)ccc1OCCN1CCOCC1", "note": "[ARTEFENOMEL]", "values": [{"measurement": "bioavailability", "setting": "[10]", "result": 76, "unit": "%"}]}
{"smiles": "O=C1C(O)=C([C@H]2CC[C@H](c3ccc(Cl)cc3)CC2)C(=O)c2ccccc21", "note": "[ATOVAQUONE]", "values": [{"measurement": "IC50", "setting": "[1]", "result": 2, "unit": "nM"}, {"measurement": "IC50", "setting": "Plasmodium falciparum [4]", "result": 0.4, "unit": "nM"}, {"measurement": "IC50", "setting": "[2]", "result": "> 10000", "unit": "nM"}, {"measurement": "IC50", "setting": "Plasmodium falciparum [5]", "result": "> 10000", "unit": "nM"}, {"measurement": "ED50", "setting": "Plasmodium yoelii", "result": 0.02, "unit": "mg/kg"}, {"measurement": "ED90", "setting": "Plasmodium yoelii", "result": 0.04, "unit": "mg/kg"}]}
{"smiles": "CC[C@H]1OC(=O)[C@H](C)[C@@H](O[C@H]2C[C@@](C)(OC)[C@@H](O)[C@H](C)O2)[C@H](C)[C@@H](O[C@@H]2O[C@H](C)C[C@H](N(C)C)[C@H]2O)[C@](C)(O)C[C@@H](C)CN(C)[C@H](C)[C@@H](O)[C@]1(C)O", "note": "[AZITHROMYCIN]", "values": [{"measurement": "IC50", "setting": "Plasmodium falciparum [11]", "result": 6500, "unit": "nM"}, {"measurement": "half-life", "setting": "[12]", "result": 74, "unit": "h"}]}
{"smiles": "CCC[C@@H]1C[C@@H](C(=O)N[C@@H]([C@H]2O[C@H](SC)[C@H](O)[C@@H](O)[C@H]2O)[C@H](C)Cl)N(C)C1", "note": "[CLINDAMYCIN]", "values": [{"measurement": "IC50", "setting": "Plasmodium falciparum [13]", "result": "> 10000", "unit": "nM"}, {"measurement": "IC50", "setting": "Plasmodium falciparum [14]", "result": 450, "unit": "nM"}, {"measurement": "IC50", "setting": "Plasmodium falciparum [15]", "result": "> 10000", "unit": "nM"}]}
{"smiles": "CC[C@H]1OC(=O)[C@H](C)[C@@H](O[C@H]2C[C@@](C)(OC)[C@@H](O)[C@H](C)O2)[C@H](C)[C@@H](O[C@@H]2O[C@H](C)C[C@H](N(C)C)[C@H]2O)[C@](C)(O)C[C@@H](C)C(=O)[C@H](C)[C@@H](O)[C@]1(C)O", "note": "[ERYTHROMYCIN]", "values": [{"measurement": "IC50", "setting": "Plasmodium falciparum [11]", "result": 68000, "unit": "nM"}]}
{"smiles": "O=CN(O)CCCP(=O)(O)O", "note": "[FOSMIDOMYCIN]", "values": [{"measurement": "ED90", "setting": "Plasmodium vinckei [16]", "result": 5, "unit": "mg/kg"}, {"measurement": "ED90", "setting": "Plasmodium vinckei [17]", "result": 20, "unit": "mg/kg"}, {"measurement": "bioavailability", "setting": "[18]", "result": 30, "unit": "%"}, {"measurement": "IC50", "setting": "Plasmodium falciparum [19]", "result": 290, "unit": "nM"}]}
{"smiles": "CC(=O)N(O)CCCP(=O)(O)O", "note": "[FR-900098]", "values": [{"measurement": "IC50", "setting": "Plasmodium falciparum [19]", "result": 90, "unit": "nM"}]}
{"smiles": "CC(C)(N)CNC(=O)C[C@H]1CC[C@]2(CC1)OO[C@]1(O2)C2CC3CC(C2)CC1C3", "note": "[OZ277]", "values": [{"measurement": "Activity", "setting": "Plasmodium berghei [20]", "result": 99, "unit": "%"}, {"measurement": "bioavailability", "setting": "[10]", "result": 13, "unit": "%"}]}
